Consider 1 compound from US20240294465A1, “NOVEL ANTI-FIBROTIC DRUGS” (HELMHOLTZ ZENTRUM MUNCHEN - DEUTSCHES FORSCHUNGSZENTRUM FUR …, priority 2021, published 2024).

Series [1] concerns TGFβ1-induced fibulin-1 ECM deposition in primary human lung IPF-fibroblasts (phLFs). Kind of series: Assessing N23P activity in inhibiting ECM deposition in IPF-fibroblasts (fibulin-1 MFI). Format: cell-based. Particulars: Homo sapiens, 72 h, 10 μM, TGFβ1 1 ng/ml, MFI, three different IPF-phLFs (n=3). Here is the method:
phLFs were cultured in DMEM F-12 medium with 20% fetal bovine serum (FBS) and antibiotic supplement as mentioned above. Cells were seeded with 6000 cells/well in 384-well CellCarrier plates (Perkin Elmer, Cat #6007550). Following overnight incubation, cells were starved in serum-reduced medium (1% FBS with 0.1 mM 2-phosphoascorbate (Sigma, Cat #49752)) for 24 h. Afterwards, cells were treated with TGFβ1 (1 ng/ml) or vehicle, and additionally small molecules or appropriate vehicle controls were added. After 72 h of incubation, medium was changed for starving medium with 1 μg/mL AlexaFluor-488 fluorophore conjugated anti-collagen-type-5 antibodies (SantaCruz, Clone C-5, Cat #sc-166155 AF488), 0.66 μg/mL AlexaFluor-555 fluorophore conjugated anti-collagen-type-1 antibodies (Rockland, Cat #600-401-103-0.1), and 1 μg/mL AlexaFluor-637 fluorophore conjugated anti-fibulin 1 antibodies (SantaCruz, Clone C-5, Cat #sc-25281 AF647) and 1 μg/mL Hoechst H33342 (Sigma). Fluorescenceconjugation of the collagen type 1 antibody was done by using the AlexaFluor-555 Protein Labeling Kit (Invitrogen, Cat #A20174) according to manufacturer's instructions. Labeling efficacy was controlled by photometrical means.
Following four hours of incubation, cells were washed three times with PBS and fixed with paraformaldehyde (PFA). For automated liquid handling in 384 well plates, an INTEGRA Assist Plus (INTEGRA, Zizers, Switzerland) equipped with an INTEGRA Viaflo 1I pipette (INTEGRA, Zizers, Switzerland, Cat #4642), 125 μL GripTips™ pipette tips (INTEGRA, Zizers, Switzerland, Cat #6464) and sterile reagent reservoirs (INTEGRA, Cat #4311) were applied. All automated pipetting steps with the INTEGRA Assist Plus were performed at 9.5 μL/s in order to ensure proper integrity and attachment of the deposited ECM to the culturing surface within the wells of the 384-well plates. During cell seeding the automated liquid handling was performed at 89.3 μL/s. Removal of liquids from the well-plates was done by manually inverting the plates.
Following fixation, the automated imaging was achieved by using aconfocal laser scanning microscope (LSM710, Zeiss) with automated focus detection for three-dimensional image acquisition (1024 px×1024 px×9 px which equals a dimension of 1417 μm×1417 μm×16 μm). For post-acquisition analysis images were imported into IMARIS software (Bitplane) and volume detection or alternatively quantification of the mean fluorescence intensity, as well as Hoechst-stained cell nuclei were automatically counted by using Imaris' spot detection algorithm.
Cells were seeded with 6000 cells/well in 384-well CellCarrier plates. After overnight incubation, cells were starved in serum-reduced medium (1% FBS with 0.1 mM 2-phosphoascorbate for 24 h). Then, phLFs were treated with TGFβ1 (1 ng/ml) or vehicle, and incubated together with synthesized N23Ps (10 μM) or appropriate vehicle controls. After 72 h of incubation, medium was changed for starvation medium with 1 μg/mL AlexaFluor-637 fluorophore conjugated anti-fibulin 1 antibodies (SantaCruz, Clone C-5, Cat #sc-25281 AF647) and 1 μg/mL Hoechst H33342 (Sigma). Following four hours of incubation, cells were washed three times with PBS and fixed with paraformaldehyde (PFA). Following fixation, the automated imaging was achieved by using a confocal laser scanning microscope (LSM710, Zeiss) with automated focus detection for three-dimensional image acquisition (1024 px×1024 px×9 px which equals a dimension of 1417 μm×1417 μm×16 μm). For post-acquisition analysis images were imported into IMARIS software (Bitplane) and quantified for the mean fluorescence intensity, as well as Hoechst-stained cell nuclei were automatically counted by using Imaris' spot detection algorithm.
Assessment of ECM inhibition I: Mean fluorescence intensity (MFI) values represented the degree of fibulin-1 ECM deposition in three different IPF-phLFs (n=3). […]

The subject of series [2] is ECM deposition of collagen I, collagen V and fibulin 1 by phLFs+TGFβ1. Kind of series: 3D ECM deposition assay (collagen I, collagen V, fibulin 1), dose-response and live imaging. Format: cell-based, human. The conditions noted are these: phLFs+TGFβ1, during 48 hours. Here is the method: phLFs were cultured in DMEM F-12 medium with 20% fetal bovine serum (FBS) and antibiotic supplement as mentioned above. Cells were seeded with 6000 cells/well in 384-well CellCarrier plates (Perkin Elmer, Cat #6007550). Following overnight incubation, cells were starved in serum-reduced medium (1% FBS with 0.1 mM 2-phosphoascorbate (Sigma, Cat #49752)) for 24 h. Afterwards, cells were treated with TGFβ1 (1 ng/ml) or vehicle, and additionally small molecules or appropriate vehicle controls were added. […] Fluorescenceconjugation of the collagen type 1 antibody was done by using the AlexaFluor-555 Protein Labeling Kit (Invitrogen, Cat #A20174) according to manufacturer's instructions. […]
Following fixation, the automated imaging was achieved by using aconfocal laser scanning microscope (LSM710, Zeiss) with automated focus detection for three-dimensional image acquisition (1024 px×1024 px×9 px which equals a dimension of 1417 μm×1417 μm×16 μm). For post-acquisition analysis images were imported into IMARIS software (Bitplane) and volume detection or alternatively quantification of the mean fluorescence intensity, as well as Hoechst-stained cell nuclei were automatically counted by using Imaris' spot detection algorithm. […]

Series [3] has as its system human lung organoids derived from human lung progenitor cells. Nature of the series: Human lung organoid growth (colony formation efficiency). Format: cell-based. The conditions noted are these: 10 μM, 14 days in culture.

Regarding `CCCCOc1ccccc1NC(=O)/C=C/c1ccc(OC)c(OC)c1` [Example 84, (E)-N-(2-butoxyphenyl)-3-(3,4-dimethoxyphenyl)acrylamide], in series [1], the inhibition (in general, how much of the control response was suppressed) at 10 µM is greater than 90%. The “dynamic deposition of collagen I and fibulin 1 (MFI, live imaging)” value in series [2] is listed as “inhibition of ECM deposition”. Further, in series [3], the organoid growth result is “inhibited organoid growth” and the “viability of lung progenitor cells (calcein / ethidium homodimer III)” value is “many lung progenitor cells are still viable”.
